# Results: ChEMBL document CHEMBL3046424, “Growth inhibitory effects on fall armyworm Spodoptera frugiperda of some limonoids isolated from Cedrela spp. (Meliaceae)” (2000)
# Experiments:
# Format in all cases: functional
# Spodoptera frugiperda [1] = test: Insecticidal activity against Spodoptera frugiperda (fall armyworm) assessed as mean time to pupation at 5 ug/ml in artificial diet (reference value: 22 days)
# Spodoptera frugiperda [2] = test: Insecticidal activity against Spodoptera frugiperda (fall armyworm) assessed as mean weight of pupae at 52 ug/ml in artificial diet (reference value: 281.5 +/- 10.3 mg)
# Spodoptera frugiperda [3] = test: Insecticidal activity against Spodoptera frugiperda (fall armyworm) assessed as mean emergence at 5 ug/ml in artificial diet (reference value: 83.3 %)
# Spodoptera frugiperda [4] = test: Insecticidal activity against Spodoptera frugiperda (fall armyworm) assessed as mean time to pupation at 25 ug/ml in artificial diet (reference value: 22 days)
# Spodoptera frugiperda [5] = test: Insecticidal activity against Spodoptera frugiperda (fall armyworm) assessed as mean length at 52 ug/ml in artificial diet measured after 7 days (reference value: 0.95 +/- 0.2 cm)
# Spodoptera frugiperda [6] = test: Insecticidal activity against Spodoptera frugiperda (fall armyworm) assessed as mean pupation at 52 ug/ml in artificial diet (reference value: 87.5 %)
# Spodoptera frugiperda [7] = test: Insecticidal activity against Spodoptera frugiperda (fall armyworm) assessed as mean emergence days at 25 ug/ml in artificial diet (reference value: 33 days)
# Spodoptera frugiperda [8] = test: Insecticidal activity against Spodoptera frugiperda (fall armyworm) assessed as mean length at 5 ug/ml in artificial diet measured after 7 days (reference value: 0.95 +/- 0.2 cm)
# Spodoptera frugiperda [9] = test: Insecticidal activity against Spodoptera frugiperda (fall armyworm) assessed as mortality at 52 ug/ml in artificial diet measured after 7 days (reference value: 8.33%); settings: 168 h
# Spodoptera frugiperda [10] = test: Insecticidal activity against Spodoptera frugiperda (fall armyworm) assessed as mean time to pupation at 52 ug/ml in artificial diet (reference value: 22 days)
# Spodoptera frugiperda [11] = test: Insecticidal activity against Spodoptera frugiperda (fall armyworm) assessed as mean weight gain at 70 ug/ml in artificial diet measured after 7 days (reference value: 75.5 +/- 8.24 mg)
# Spodoptera frugiperda [12] = test: Insecticidal activity against Spodoptera frugiperda (fall armyworm) assessed as mean weight of pupae at 5 ug/ml in artificial diet (reference value: 281.5 +/- 10.3 mg)
# Spodoptera frugiperda [13] = test: Insecticidal activity against Spodoptera frugiperda (fall armyworm) assessed as mean weight gain at 25 ug/ml in artificial diet measured after 7 days (reference value: 75.5 +/- 8.24 mg)
# Spodoptera frugiperda [14] = test: Insecticidal activity against Spodoptera frugiperda (fall armyworm) assessed as mean weight gain at 5 ug/ml in artificial diet measured after 7 days (reference value: 75.5 +/- 8.24 mg)
# Spodoptera frugiperda [15] = test: Insecticidal activity against Spodoptera frugiperda (fall armyworm) assessed as mean length at 25 ug/ml in artificial diet measured after 7 days (reference value: 0.95 +/- 0.2 cm)
# Spodoptera frugiperda [16] = test: Insecticidal activity against Spodoptera frugiperda (fall armyworm) assessed as mortality at 25 ug/ml in artificial diet measured after 7 days (reference value: 8.33%); settings: 168 h
# Spodoptera frugiperda [17] = test: Insecticidal activity against Spodoptera frugiperda (fall armyworm) assessed as mean pupation at 25 ug/ml in artificial diet (reference value: 87.5 %)
# Spodoptera frugiperda [18] = test: Insecticidal activity against Spodoptera frugiperda (fall armyworm) assessed as mean weight gain at 52 ug/ml in artificial diet measured after 7 days (reference value: 469.5 +/- 6.59 mg)
# Spodoptera frugiperda [19] = test: Insecticidal activity against Spodoptera frugiperda (fall armyworm) assessed as mean weight gain at 25 ug/ml in artificial diet measured after 7 days (reference value: 469.5 +/- 6.59 mg)
# Spodoptera frugiperda [20] = test: Insecticidal activity against Spodoptera frugiperda (fall armyworm) assessed as mean weight gain at 5 ug/ml in artificial diet measured after 7 days (reference value: 469.5 +/- 6.59 mg)
# Spodoptera frugiperda [21] = test: Insecticidal activity against Spodoptera frugiperda (fall armyworm) assessed as mean pupation at 5 ug/ml in artificial diet (reference value: 87.5 %)
# Spodoptera frugiperda [22] = test: Insecticidal activity against Spodoptera frugiperda (fall armyworm) assessed as mean emergence days at 5 ug/ml in artificial diet (reference value: 33 days)
# Spodoptera frugiperda [23] = test: Insecticidal activity against Spodoptera frugiperda (fall armyworm) assessed as mean weight gain at 52 ug/ml in artificial diet measured after 7 days (reference value: 75.5 +/- 8.24 mg)
# Spodoptera frugiperda [24] = test: Insecticidal activity against Spodoptera frugiperda (fall armyworm) assessed as mean emergence at 25 ug/ml in artificial diet (reference value: 83.3 %)
# Spodoptera frugiperda [25] = test: Insecticidal activity against Spodoptera frugiperda (fall armyworm) assessed as mean emergence days at 52 ug/ml in artificial diet (reference value: 33 days)
# Spodoptera frugiperda [26] = test: Insecticidal activity against Spodoptera frugiperda (fall armyworm) assessed as mean weight of pupae at 25 ug/ml in artificial diet (reference value: 281.5 +/- 10.3 mg)
# Spodoptera frugiperda [27] = test: Insecticidal activity against Spodoptera frugiperda (fall armyworm) assessed as mean length at 25 ug/ml in artificial diet measured after 7 days (reference value: 28 +/- 4.1 mg)
# Spodoptera frugiperda [28] = test: Insecticidal activity against Spodoptera frugiperda (fall armyworm) assessed as mortality at 5 ug/ml in artificial diet measured after 7 days (reference value: 8.33%); settings: 168 h
# Spodoptera frugiperda [29] = test: Insecticidal activity against Spodoptera frugiperda (fall armyworm) assessed as mean length at 70 ug/ml in artificial diet measured after 7 days (reference value: 0.95 +/- 0.2 cm)
# Spodoptera frugiperda [30] = test: Insecticidal activity against Spodoptera frugiperda (fall armyworm) assessed as mean length at 5 ug/ml in artificial diet measured after 7 days (reference value: 28 +/- 4.1 mg)
# Spodoptera frugiperda [31] = test: Insecticidal activity against Spodoptera frugiperda (fall armyworm) assessed as mean emergence at 52 ug/ml in artificial diet (reference value: 83.3 %)
# Spodoptera frugiperda [32] = test: Insecticidal activity against Spodoptera frugiperda (fall armyworm) assessed as mean length at 52 ug/ml in artificial diet measured after 7 days (reference value: 28 +/- 4.1 mg)
# Spodoptera frugiperda [33] = test: Insecticidal activity against Spodoptera frugiperda (fall armyworm) assessed as mortality at 70 ug/ml in artificial diet measured after 7 days (reference value: 8.33%); settings: 168 h
smiles,measurement,setting,value
CCC(=O)[C@@H]1C(=O)O[C@@]2(C=O)[C@H]1[C@](C)([C@@H](OC(C)=O)c1ccoc1)CC[C@@H]2[C@@]1(C)C(=O)C[C@@H]2O[C@@H](C(=O)OC)[C@H]1C2(C)C [CEDRELANOLIDE],Time,Spodoptera frugiperda [1],22 days
same,Activity,Spodoptera frugiperda [2],123.9 mg
same,Activity,Spodoptera frugiperda [3],79.2%
same,Time,Spodoptera frugiperda [4],21.5 days
same,Activity,Spodoptera frugiperda [5],0.7 cm
same,Activity,Spodoptera frugiperda [6],62.5%
same,Time,Spodoptera frugiperda [7],33 days
same,Activity,Spodoptera frugiperda [8],1.2 cm
same,mortality at 52 µg/mL,Spodoptera frugiperda [9],28%
same,Time,Spodoptera frugiperda [10],22.5 days
same,Activity,Spodoptera frugiperda [11],9.1 mg
same,Activity,Spodoptera frugiperda [12],221.9 mg
same,Activity,Spodoptera frugiperda [13],20.8 mg
same,Activity,Spodoptera frugiperda [14],27.85 mg
same,Activity,Spodoptera frugiperda [15],0.95 cm
same,mortality at 25 µg/mL,Spodoptera frugiperda [16],21%
same,Activity,Spodoptera frugiperda [17],66.7%
same,Activity,Spodoptera frugiperda [18],40.1 mg
same,Activity,Spodoptera frugiperda [19],41.6 mg
same,Activity,Spodoptera frugiperda [20],55.7 mg
same,Activity,Spodoptera frugiperda [21],79.2%
same,Time,Spodoptera frugiperda [22],33 days
same,Activity,Spodoptera frugiperda [23],15.4 mg
same,Activity,Spodoptera frugiperda [24],62.5%
same,Time,Spodoptera frugiperda [25],33 days
same,Activity,Spodoptera frugiperda [26],191.8 mg
same,Activity,Spodoptera frugiperda [27],6.7 mm
same,mortality at 5 µg/mL,Spodoptera frugiperda [28],15%
same,Activity,Spodoptera frugiperda [29],0.51 cm
same,Activity,Spodoptera frugiperda [30],8.7 mm
same,Activity,Spodoptera frugiperda [31],50%
same,Activity,Spodoptera frugiperda [32],5.3 mm
same,mortality at 70 µg/mL,Spodoptera frugiperda [33],38%
